Reference: ChEMBL document CHEMBL3638480, “Inhibitors” (2013)

Molecular target: Glutaminyl-peptide cyclotransferase (Homo sapiens, UniProt Q16769)
Test: Spectrophotometic Assay: Spectrophotometic Assay: This novel assay was used to determine the kinetic parameters for most of the QC substrates. QC activity was analyzed spectrophotometrically using a continuous method, that was derived by adapting a previous discontinuous assay (Bateman, R.C.J. 1989 J Neurosci Methods 30, 23-28).

Sequence of Glutaminyl-peptide cyclotransferase (Q16769 whole entry): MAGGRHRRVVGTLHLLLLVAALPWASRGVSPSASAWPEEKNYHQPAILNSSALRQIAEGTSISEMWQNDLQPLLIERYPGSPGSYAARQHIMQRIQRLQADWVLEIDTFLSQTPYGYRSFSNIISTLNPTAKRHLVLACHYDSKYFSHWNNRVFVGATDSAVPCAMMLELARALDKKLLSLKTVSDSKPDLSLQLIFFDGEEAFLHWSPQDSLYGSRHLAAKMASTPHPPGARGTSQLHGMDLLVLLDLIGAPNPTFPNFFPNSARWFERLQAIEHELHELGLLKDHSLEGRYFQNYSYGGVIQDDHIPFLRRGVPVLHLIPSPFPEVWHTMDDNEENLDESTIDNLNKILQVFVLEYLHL

Structure (SMILES)	IC50
O=C1OC[C@H](c2ccc(N3CCOCC3)cc2)N1c1ccc2[nH]cnc2c1	< 10 µM
O=C1OC[C@H](c2ccc(N(C3CC3)C3CC3)cc2)N1c1ccc2[nH]cnc2c1	< 10 µM
O=C1OC[C@H](c2ccc(C3CCCCC3)cc2)N1c1ccn2ccnc2c1	< 10 µM
O=C1OC[C@H](c2ccc(-c3ccccc3)cc2)N1c1ccc2[nH]cnc2c1	< 10 µM
O=C1OC[C@H](c2cccc(N3CCOCC3)c2)N1c1ccc2[nH]cnc2c1	< 10 µM
CN1CCN(c2cccc([C@H]3COC(=O)N3c3ccc4nc[nH]c4c3)c2)CC1	< 10 µM
COCCN(CCOC)c1ccc([C@H]2COC(=O)N2c2ccc3[nH]cnc3c2)cc1	< 10 µM
O=C1OC[C@H](c2ccc(N3CCOCC3)cc2)N1c1ccn2ccnc2c1	< 10 µM
O=C1OC[C@H](c2ccc(N3CCN(c4ccccc4)CC3)cc2)N1c1ccn2ccnc2c1	< 10 µM
O=C1OC[C@H](c2cccc(N3CCCCC3)c2)N1c1ccc2[nH]cnc2c1	< 10 µM
O=C1OC[C@H](c2ccc(N3CCCCC3)cc2)N1c1ccc2[nH]cnc2c1	< 10 µM
CCN(CC)c1ccc([C@H]2COC(=O)N2c2ccc3[nH]cnc3c2)cc1	< 10 µM
CCCOc1ccc([C@H]2OC(=O)N(c3ccc4nc[nH]c4c3)[C@H]2c2ccc(OCCC)cc2)cc1 (single isomer, unassigned)	< 10 µM

The remaining lines, values ahead:

IC50	Structure (SMILES)
< 10 µM	CN1CCC(c2ccc(C3COC(=O)N3c3ccc4[nH]cnc4c3)cc2)CC1 (stereo unspecified)
< 10 µM	O=C1OCC(c2ccc(C3CCC(N4CCOCC4)CC3)cc2)N1c1ccc2[nH]cnc2c1 (stereo unspecified)
< 10 µM	COC1CCC(c2ccc(C3COC(=O)N3c3ccc4[nH]cnc4c3)cc2)CC1 (stereo unspecified)
< 10 µM	O=C1OCC(c2ccc(N3CCCC3)cc2)N1c1ccc2[nH]cnc2c1 (stereo unspecified)
< 10 µM	O=C1OCC(c2ccc(C3CCC(O)CC3)cc2)N1c1ccc2[nH]cnc2c1 (stereo unspecified)
< 10 µM	O=C1CCC(c2ccc(C3COC(=O)N3c3ccc4[nH]cnc4c3)cc2)CC1 (stereo unspecified)
< 10 µM	O=C1OCC(c2ccc(C3CCOCC3)cc2)N1c1ccc2[nH]cnc2c1 (stereo unspecified)
< 10 µM	O=C1OC[C@H](c2ccc(N3CCCCC3)cc2)N1c1ccn2ccnc2c1
